Measurements reported in US20130158112A1, “COMPOSITIONS AND METHODS FOR INHIBITING BETA AMYLOID SECRETION” (priority 2011, published 2013).

Columns and labels:
α-secretase [1] = test: α-Secretase activity assay in lysates of treated H4βAPP695 wt cells; type: cell-based, human
Protocol: (§1) H4βAPP695 wt were treated with vehicle or 1 for 24 h, washed with ice cold PBS, and lysed in extraction buffer provided with the α-secretase assay kit (R&D Systems) for 10 min on ice and centrifuged at 10000 g for 1 min to remove nuclei. Protein content of the supernatant was determined by the BCA assay, and 50 μg of lysate protein were added to wells of a 96-well assay plate and the volume was adjusted to 100 μL using the lysis buffer. 100 μL of reaction buffer and 10 μL of the fluorogenic substrate were added, and the plates were incubated at 37° C. in the dark with gentle agitation for 2 h. Activity was detected in a fluorescence plate reader using an excitation of 355 nm and an emission of 510 nm after subtraction of fluorescence in the absence of cell lysate.
(§2) We measured the activity of α-secretase using a fluorogenic peptide substrate in lysates of H4βAPP695 wt cells. […] However, addition of compound 1 directly to the cell lysates, rather than to the live cells, had no effect on α-secretase activity (data not shown), implying an indirect cellular activation of this pathway rather than direct activation of the α-secretase protease by compound 1.

α-secretase [2] = test: α-Secretase activity, compound added directly to cell lysates; type: biochemical, human; details: added to lysates rather than live cells
Protocol: as §1, §2

`O=C(NCCSCc1cccc(Cl)c1)c1c(Cl)cccc1Cl` [Compound 1] was tested, and the “α-secretase activity after treatment of cells” value (α-secretase [1]) was “induced”, the “increase in α-secretase activity” value (α-secretase [1]; cells pretreated with 10 μM for 24 h) was 20% and the “α-secretase activity on direct addition to cell lysates” value (α-secretase [2]) was “no effect”.
